Measured values reported in the supplement of paper PMC10307832.

Columns and labels:
Assay in all cases: relative viability (nuclei count vs DMSO), 5 days (fraction); higher = more cells survive
[1] = compound: NC1(c2ccc(-c3nc4ccn5c(=O)[nH]nc5c4cc3-c3ccccc3)cc2)CCC1 [MK-2206] + CCNC(=O)c1noc(-c2cc(C(C)C)c(O)cc2O)c1-c1ccc(CN2CCOCC2)cc1 [Luminespib] (partner 0.01 µM)
Method in brief: (§1)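 Each reported value is a median over duplicate plates. It expresses relative viability: treated-well nuclei count divided by vehicle-well nuclei count. Lung cancer cell lines in 1536-well plates were dosed by pin tool a day after seeding, alone with one drug or with a fixed anchor-drug dose plus five library-drug doses (not always all listed) in √10 steps, and nuclei were counted after 5 days.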

[2] = compound: CS(=O)(=O)N1CCN(Cc2cc3nc(-c4cccc5[nH]ncc45)nc(N4CCOCC4)c3s2)CC1 [Pictilisib] + Cc1cc(Nc2cc(N3CCN(C)CC3)nc(Sc3ccc(NC(=O)C4CC4)cc3)n2)n[nH]1 [Tozasertib] (partner 0.1 µM)
Method in brief: as §1

[3] = compound: NC1(c2ccc(-c3nc4ccn5c(=O)[nH]nc5c4cc3-c3ccccc3)cc2)CCC1 [MK-2206] + Cc1nc(Nc2ncc(C(=O)Nc3c(C)cccc3Cl)s2)cc(N2CCN(CCO)CC2)n1 [Dasatinib] (partner 0.075 µM)
Method in brief: as §1

[4] = compound: NC1(c2ccc(-c3nc4ccn5c(=O)[nH]nc5c4cc3-c3ccccc3)cc2)CCC1 [MK-2206] + Cc1nc(NC(=O)N2CCC[C@H]2C(N)=O)sc1-c1ccnc(C(C)(C)C(F)(F)F)c1 [Alpelisib] (partner 2 µM)
Method in brief: as §1

[5] = compound: CS(=O)(=O)N1CCN(Cc2cc3nc(-c4cccc5[nH]ncc45)nc(N4CCOCC4)c3s2)CC1 [Pictilisib] + O=C(c1cc(Cc2n[nH]c(=O)c3ccccc23)ccc1F)N1CCN(C(=O)C2CC2)CC1 [Olaparib] (partner 8 µM)
Method in brief: as §1

NCI-H1944
relative viability ([1]; first compound 0.01 µM): 0.729 | relative viability ([1]; first compound 0.03162 µM): 0.806 | relative viability ([1]; first compound 0.3162 µM): 0.685 | relative viability ([1]; first compound 1 µM): 0.676 | relative viability ([2]; first compound 0.02 µM): 0.254 | relative viability ([2]; first compound 0.06325 µM): 0.234 | relative viability ([2]; first compound 0.6325 µM): 0.195 | relative viability ([2]; first compound 2 µM): 0.148 | relative viability ([3]; first compound 0.01 µM): 0.243 | relative viability ([3]; first compound 0.03162 µM): 0.227 | relative viability ([3]; first compound 0.3162 µM): 0.198 | relative viability ([3]; first compound 1 µM): 0.182 | relative viability ([4]; first compound 0.01 µM): 0.912 | relative viability ([4]; first compound 0.03162 µM): 0.834 | relative viability ([4]; first compound 0.3162 µM): 0.833 | relative viability ([4]; first compound 1 µM): 0.752 | relative viability ([5]; first compound 0.02 µM): 0.395 | relative viability ([5]; first compound 0.06325 µM): 0.381 | relative viability ([5]; first compound 0.6325 µM): 0.368 | relative viability ([5]; first compound 2 µM): 0.232

NCI-H1651
relative viability ([1]; first compound 0.01 µM): 0.865 | relative viability ([1]; first compound 0.03162 µM): 0.888 | relative viability ([1]; first compound 0.3162 µM): 0.808 | relative viability ([1]; first compound 1 µM): 0.965 | relative viability ([2]; first compound 0.02 µM): 0.637 | relative viability ([2]; first compound 0.06325 µM): 0.567 | relative viability ([2]; first compound 0.6325 µM): 0.544 | relative viability ([2]; first compound 2 µM): 0.286 | relative viability ([3]; first compound 0.01 µM): 0.386 | relative viability ([3]; first compound 0.03162 µM): 0.448 | relative viability ([3]; first compound 0.3162 µM): 0.478 | relative viability ([3]; first compound 1 µM): 0.405 | relative viability ([4]; first compound 0.01 µM): 0.921 | relative viability ([4]; first compound 0.03162 µM): 0.906 | relative viability ([4]; first compound 0.3162 µM): 0.938 | relative viability ([4]; first compound 1 µM): 0.898 | relative viability ([5]; first compound 0.02 µM): 0.18 | relative viability ([5]; first compound 0.06325 µM): 0.187 | relative viability ([5]; first compound 0.6325 µM): 0.21 | relative viability ([5]; first compound 2 µM): 0.191

EBC-1
relative viability ([4]; first compound 0.01 µM): 0.767 | relative viability ([4]; first compound 0.03162 µM): 0.843 | relative viability ([4]; first compound 0.3162 µM): 0.388 | relative viability ([4]; first compound 1 µM): 0.28 | relative viability ([5]; first compound 0.02 µM): 0.681 | relative viability ([5]; first compound 0.06325 µM): 0.741 | relative viability ([5]; first compound 0.6325 µM): 0.564 | relative viability ([5]; first compound 2 µM): 0.243

COR-L 105
relative viability ([1]; first compound 0.01 µM): 0.868 | relative viability ([1]; first compound 0.03162 µM): 0.803 | relative viability ([1]; first compound 0.3162 µM): 0.888 | relative viability ([1]; first compound 1 µM): 0.729 | relative viability ([2]; first compound 0.02 µM): 0.33 | relative viability ([2]; first compound 0.06325 µM): 0.303 | relative viability ([2]; first compound 0.6325 µM): 0.344 | relative viability ([2]; first compound 2 µM): 0.292 | relative viability ([3]; first compound 0.01 µM): 0.411 | relative viability ([3]; first compound 0.03162 µM): 0.409 | relative viability ([3]; first compound 0.3162 µM): 0.305 | relative viability ([3]; first compound 1 µM): 0.289 | relative viability ([4]; first compound 0.01 µM): 0.98 | relative viability ([4]; first compound 0.03162 µM): 0.951 | relative viability ([4]; first compound 0.3162 µM): 0.825 | relative viability ([4]; first compound 1 µM): 0.677 | relative viability ([5]; first compound 0.02 µM): 0.667 | relative viability ([5]; first compound 0.06325 µM): 0.697 | relative viability ([5]; first compound 0.6325 µM): 0.734 | relative viability ([5]; first compound 2 µM): 0.549

RERF-LC-KJ
relative viability ([1]; first compound 0.01 µM): 1.27 | relative viability ([1]; first compound 0.03162 µM): 1.11 | relative viability ([1]; first compound 0.3162 µM): 0.971 | relative viability ([1]; first compound 1 µM): 1.06 | relative viability ([2]; first compound 0.02 µM): 0.5 | relative viability ([2]; first compound 0.06325 µM): 0.529 | relative viability ([2]; first compound 0.6325 µM): 0.477 | relative viability ([2]; first compound 2 µM): 0.352 | relative viability ([3]; first compound 0.01 µM): 0.788 | relative viability ([3]; first compound 0.03162 µM): 0.796 | relative viability ([3]; first compound 0.3162 µM): 0.607 | relative viability ([3]; first compound 1 µM): 0.626 | relative viability ([4]; first compound 0.01 µM): 0.922 | relative viability ([4]; first compound 0.03162 µM): 0.802 | relative viability ([4]; first compound 0.3162 µM): 0.663 | relative viability ([4]; first compound 1 µM): 0.697 | relative viability ([5]; first compound 0.02 µM): 0.925 | relative viability ([5]; first compound 0.06325 µM): 0.834 | relative viability ([5]; first compound 0.6325 µM): 0.784 | relative viability ([5]; first compound 2 µM): 0.578

NCI-H1793
relative viability ([1]; first compound 0.01 µM): 0.186 | relative viability ([1]; first compound 0.03162 µM): 0.178 | relative viability ([1]; first compound 0.3162 µM): 0.164 | relative viability ([1]; first compound 1 µM): 0.174 | relative viability ([2]; first compound 0.02 µM): 0.288 | relative viability ([2]; first compound 0.06325 µM): 0.29 | relative viability ([2]; first compound 0.6325 µM): 0.189 | relative viability ([2]; first compound 2 µM): 0.097 | relative viability ([3]; first compound 0.01 µM): 0.474 | relative viability ([3]; first compound 0.03162 µM): 0.514 | relative viability ([3]; first compound 0.3162 µM): 0.344 | relative viability ([3]; first compound 1 µM): 0.317 | relative viability ([4]; first compound 0.01 µM): 0.721 | relative viability ([4]; first compound 0.03162 µM): 0.816 | relative viability ([4]; first compound 0.3162 µM): 0.634 | relative viability ([4]; first compound 1 µM): 0.727 | relative viability ([5]; first compound 0.02 µM): 0.812 | relative viability ([5]; first compound 0.06325 µM): 0.613 | relative viability ([5]; first compound 0.6325 µM): 0.331 | relative viability ([5]; first compound 2 µM): 0.167

CAL-12T
relative viability ([1]; first compound 0.01 µM): 0.362 | relative viability ([1]; first compound 0.03162 µM): 0.515 | relative viability ([1]; first compound 0.3162 µM): 0.457 | relative viability ([1]; first compound 1 µM): 0.477 | relative viability ([2]; first compound 0.02 µM): 0.296 | relative viability ([2]; first compound 0.06325 µM): 0.314 | relative viability ([2]; first compound 0.6325 µM): 0.277 | relative viability ([2]; first compound 2 µM): 0.17 | relative viability ([3]; first compound 0.01 µM): 0.486 | relative viability ([3]; first compound 0.03162 µM): 0.504 | relative viability ([3]; first compound 0.3162 µM): 0.355 | relative viability ([3]; first compound 1 µM): 0.345 | relative viability ([4]; first compound 0.01 µM): 1.04 | relative viability ([4]; first compound 0.03162 µM): 1.03 | relative viability ([4]; first compound 0.3162 µM): 1.05 | relative viability ([4]; first compound 1 µM): 0.895 | relative viability ([5]; first compound 0.02 µM): 0.761 | relative viability ([5]; first compound 0.06325 µM): 0.785 | relative viability ([5]; first compound 0.6325 µM): 0.754 | relative viability ([5]; first compound 2 µM): 0.523

NCI-H1993
relative viability ([1]; first compound 0.01 µM): 0.44 | relative viability ([1]; first compound 0.03162 µM): 0.827 | relative viability ([1]; first compound 0.3162 µM): 0.671 | relative viability ([1]; first compound 1 µM): 0.565 | relative viability ([2]; first compound 0.02 µM): 0.483 | relative viability ([2]; first compound 0.06325 µM): 0.567 | relative viability ([2]; first compound 0.6325 µM): 0.5 | relative viability ([2]; first compound 2 µM): 0.529 | relative viability ([3]; first compound 0.01 µM): 0.29 | relative viability ([3]; first compound 0.03162 µM): 0.524 | relative viability ([3]; first compound 0.3162 µM): 0.556 | relative viability ([3]; first compound 1 µM): 0.51 | relative viability ([4]; first compound 0.01 µM): 0.73 | relative viability ([4]; first compound 0.03162 µM): 0.668 | relative viability ([4]; first compound 0.3162 µM): 0.663 | relative viability ([4]; first compound 1 µM): 0.652 | relative viability ([5]; first compound 0.02 µM): 0.964 | relative viability ([5]; first compound 0.06325 µM): 0.94 | relative viability ([5]; first compound 0.6325 µM): 0.763 | relative viability ([5]; first compound 2 µM): 0.388
